We go through one compound from paper PMC7099630 (Bioanalysis, 2016).

SMILES strings stand for the structures.

Data set [1] can be described thus: Stability of chloroquine in miniature pig plasma QC samples under different storage conditions. The data set is classed as in vitro ADME. As to conditions: miniature pig plasma (spiked QC samples), plasma QC standing prior to preparation, read-out: Benchtop stability (8 h), Recovery (mean ± SD, %).
Assay in data set [2]: as above
Format: in vitro ADME. As for the experimental part:
Mimic pig plasma samples at LQC and HQC levels were analyzed along with freshly spiked calibration standards to obtain calculated concentrations.
Benchtop stability was evaluated by allowing QC samples to stand for 6 h prior to preparation. Unextracted QC samples were stored at -20°C for 40 days before extraction to test long-term stability. To analyze freeze–thaw stability, QC samples were stored at -20°C and then allowed to thaw to room temperature for three cycles. Processed QC samples were allowed to stand in the autosampler for 24 h before analysis to determine whether an occasional delay in injection, or reinjection of extracted samples, would lead to degradation.

A short description of data set [3]: PK study in Wuzhishan miniature pigs after a single oral dose, plasma by HILIC-MS/MS. The data set is classed as in vivo, Wuzhishan miniature pig. The settings on record: average, single oral dose 0.2 g. The procedure: Two ordinary grade, healthy, Wuzhishan miniature pig (6–8 months old, 7–9 kg) were purchased from Pearl Laboratory Animal Sci. & Tech. Co., Ltd (Dongguan, China) and maintained on standard food and water. The pigs were housed in individual cages and identified by ear tags. […] Blood samples (1.5 ml) were collected in heparinized tubes via the precaval or pelvic vein before medication and 0.5, 1, 2, 4, 6, 8, 12, 24, 36, 48, 72, 96 and 120 h after drug administration. All blood samples were immediately centrifuged at 2000 × g for 15 min (Centrifuge 5418, Eppendorf) and then stored at −70°C before analysis. The maximum plasma concentration (Cmax) and time of occurrence (tmax) were read directly from the concentration-time curve. Other PK parameters were calculated with DAS 3.2.4 software, using a noncompartmental model.

A short description of data set [4]: Stock solution stability of chloroquine. Format: physicochemical. As to conditions: 40 days at -20°C vs freshly prepared, read-out: Solution stability (40 day), Recovery (mean ± SD, %).
Setting [5] is: healthy miniature pigs, noncompartmental model.

For the compound `CCN(CC)CCCC(C)Nc1ccnc2cc(Cl)ccc12` (stereo not shown) [chloroquine, N’-(7-chloro-4-quinolyl)-N,N-diethyl-pentane-1,4-diamine], the recovery at 8 h, 75 ng/ml in data set [1] (HQC (75 ng/ml)) was 103.5 ± 1%. Besides, the recovery at 8 h, 3 ng/ml in data set [1] (LQC (3 ng/ml)) stood at 104 ± 1.33%. Also, in data set [2] (24 h in autosampler), the “stability of prepared samples after storage in the autosampler” value is reported as “stable”. In addition, the “time stable during bench top preparation” value in data set [2] (miniature pig plasma) is “at least 6 h”. Moreover, the “time stable on storage at −20°C” value in data set [2] (miniature pig plasma) was “at least 40 days”. Besides, the recovery at 75 ng/ml in data set [2] (miniature pig, miniature pig plasma (spiked QC samples), HQC (75 ng/ml), -20°C to room temperature, three cycles, read-out: Freeze–thaw stability (3 cycles), Recovery (mean ± SD, %)) came out at 106 ± 1.07%. Besides, the recovery at 40 day, 75 ng/ml is 104.3 ± 1.04% in data set [2] (miniature pig, miniature pig plasma (spiked QC samples), HQC (75 ng/ml), unextracted plasma QC stored at -20°C for 40 days, read-out: Long-term stability (40 day), Recovery (mean ± SD, %)) and 103 ± 2.46% in data set [4] (HQC (75 ng/ml)). For the same compound, the recovery at 3 ng/ml in data set [2] (miniature pig, miniature pig plasma (spiked QC samples), LQC (3 ng/ml), -20°C to room temperature, three cycles, read-out: Freeze–thaw stability (3 cycles), Recovery (mean ± SD, %)) was 106 ± 9.74%. For the same compound, the recovery at 40 day, 3 ng/ml amounted to 106 ± 3.35% in data set [2] (miniature pig, miniature pig plasma (spiked QC samples), LQC (3 ng/ml), unextracted plasma QC stored at -20°C for 40 days, read-out: Long-term stability (40 day), Recovery (mean ± SD, %)) and 102 ± 6.75% in data set [4] (LQC (3 ng/ml)). Also, in data set [2] (miniature pig, HQC (75 ng/ml), processed samples in autosampler for 24 h, read-out: Processed stability (24 h), Recovery (mean ± SD, %)), the recovery at 24 h, 75 ng/ml worked out at 105.7 ± 0.34%. In addition, in data set [2] (miniature pig, LQC (3 ng/ml), processed samples in autosampler for 24 h, read-out: Processed stability (24 h), Recovery (mean ± SD, %)), the recovery at 24 h, 3 ng/ml was determined as 98.9 ± 1.08%. Also, the AUC(0-inf) (commonly total exposure, with the tail of the curve extrapolated) in data set [3] (Wuzhishan miniature pig, pig, plasma, healthy miniature pigs, noncompartmental model) was 380 ng·h/mL. Further, the half-life in data set [3] (Wuzhishan miniature pig, pig, plasma, healthy miniature pigs, noncompartmental model, read-out: elimination t1/2 (converted)) was 16.9 h. Moreover, in data set [3] (Wuzhishan miniature pig, pig, healthy miniature pigs (two animals), plasma), the peak level (Cmax) was 15 ng/mL. Besides, the Tmax – broadly, the time from dosing to the highest level – in data set [3] (Wuzhishan miniature pig, pig, healthy miniature pigs, plasma) was 3 h. Besides, the CL/F (in general, clearance divided by bioavailability, as obtained after extravascular dosing) in data set [3] (setting [5]) was 54.15 L/h. Moreover, the V/F in data set [3] (setting [5]) was 1543.82 L.
